Drawing on BindingDB's records for patent US11814367 (Maze Therapeutics, 2023), this text covers IC50 for 19 compounds.

In general, IC50 refers to the midpoint of a concentration-inhibition curve.

The target of experiment [1] is T1, Glycogen [starch] synthase, muscle (Homo sapiens, UniProt P13807).
T1 sequence (P13807 whole entry): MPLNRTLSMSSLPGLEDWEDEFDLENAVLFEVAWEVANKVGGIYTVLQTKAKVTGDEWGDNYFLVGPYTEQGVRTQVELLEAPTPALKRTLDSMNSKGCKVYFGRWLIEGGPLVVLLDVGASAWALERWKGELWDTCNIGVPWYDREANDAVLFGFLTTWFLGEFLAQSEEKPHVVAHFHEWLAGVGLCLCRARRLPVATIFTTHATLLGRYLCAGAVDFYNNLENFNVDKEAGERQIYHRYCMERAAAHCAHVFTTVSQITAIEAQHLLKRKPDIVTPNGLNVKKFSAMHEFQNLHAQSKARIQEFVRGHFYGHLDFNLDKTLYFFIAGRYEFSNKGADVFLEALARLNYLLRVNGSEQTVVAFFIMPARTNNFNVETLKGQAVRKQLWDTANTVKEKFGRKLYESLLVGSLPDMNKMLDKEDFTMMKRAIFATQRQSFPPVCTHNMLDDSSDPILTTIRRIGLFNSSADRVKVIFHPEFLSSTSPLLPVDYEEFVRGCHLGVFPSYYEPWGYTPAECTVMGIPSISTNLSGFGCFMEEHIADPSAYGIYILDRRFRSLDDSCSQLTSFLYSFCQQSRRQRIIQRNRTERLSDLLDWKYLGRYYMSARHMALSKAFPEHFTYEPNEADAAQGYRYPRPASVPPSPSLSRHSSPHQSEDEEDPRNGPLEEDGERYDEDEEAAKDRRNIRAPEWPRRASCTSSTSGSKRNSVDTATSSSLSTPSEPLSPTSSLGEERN
Briefly: Kinetic Biochemical Assay. As to the method:
The Assay Buffer contained 50 mM Tris pH 7.5, 2 mM MgCl2, and 100 mM KCl. Fresh stocks of BSA at a final concentration of 0.02% and TCEP at 1 mM were added before splitting buffer into hGYS1 buffer and substrate buffer. To the hGYS1 buffer, rabbit liver glycogen was added at a final concentration of 0.2% glycogen. Glucose-6-Phosphate was added at 1 mM, recombinant hGYS1/GN1 protein was added at 50 nM to the substrate buffer, phosphoenolpyruvate (PEP) was added at 2 mM, UDP-Glucose was added at 0.8 mM, NADH) was added at 0.6 mM, and Pyruvate Kinase/Lactate Dehydrogenase was added at 20 units/mL. The reaction was initiated by mixing hGYS1 buffer and substrate buffer at a 1:1 ratio. Both buffers were plated using a liquid dispensing device with hGYS1 buffer plated first followed by the substrate buffer. Plates were spun briefly to eliminate air bubbles and are immediately read in continuous mode at an absorbance of 340 nm, for 10 time points in one-minute increments, for a total of 10 minutes. The slope from these 10 time points was normalized to the positive and negative control wells.

The target in experiment [2] is T2, Glycogen [starch] synthase, liver (Homo sapiens, UniProt P54840).
T2 sequence (P54840 whole entry): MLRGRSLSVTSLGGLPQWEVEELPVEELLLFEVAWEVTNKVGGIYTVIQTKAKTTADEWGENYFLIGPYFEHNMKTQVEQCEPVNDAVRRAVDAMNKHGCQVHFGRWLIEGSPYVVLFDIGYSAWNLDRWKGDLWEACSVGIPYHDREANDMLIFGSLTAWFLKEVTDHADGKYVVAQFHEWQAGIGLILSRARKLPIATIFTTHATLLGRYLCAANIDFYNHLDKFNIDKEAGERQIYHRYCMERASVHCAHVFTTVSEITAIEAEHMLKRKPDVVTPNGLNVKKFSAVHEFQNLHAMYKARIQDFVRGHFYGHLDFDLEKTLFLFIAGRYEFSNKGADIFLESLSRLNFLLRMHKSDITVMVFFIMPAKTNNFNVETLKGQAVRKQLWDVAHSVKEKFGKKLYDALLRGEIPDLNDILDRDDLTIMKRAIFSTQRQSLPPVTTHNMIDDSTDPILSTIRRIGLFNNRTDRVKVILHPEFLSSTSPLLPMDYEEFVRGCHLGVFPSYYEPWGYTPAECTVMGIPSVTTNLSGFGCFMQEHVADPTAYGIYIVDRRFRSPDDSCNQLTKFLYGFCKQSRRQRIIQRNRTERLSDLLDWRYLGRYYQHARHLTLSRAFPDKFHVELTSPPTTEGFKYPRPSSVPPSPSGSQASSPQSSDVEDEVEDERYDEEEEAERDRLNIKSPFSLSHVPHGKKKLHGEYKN
Briefly: The GYS2 coupled enzyme assay. As to the method:
Compounds that inhibit the hGYS2 enzyme and, subsequently, the downstream conversion of NADH to NAD+, were tested using assay ready plates (black, clear bottom 384 well plates) in a final DMSO reaction volume of 2.5% DMSO. The Assay Buffer contained 50 mM Tris pH 7.5, 2 mM MgCl2, and 100 mM KCl. Fresh stocks of BSA at a final concentration of 0.02% and TCEP 1 mM were added before splitting buffer into hGYS2 buffer and substrate buffer. To the hGYS2 buffer, rabbit liver glycogen was added at a final concentration of 0.2% glycogen. Glucose-6-Phosphate was added at 2 mM, recombinant hGYS2/GN1 protein was added at 200 nM to the substrate buffer, phosphoenolpyruvate (PEP) was added at 2 mM, UDP-Glucose was added at 2 mM, NADH was added at 0.6 mM, and Pyruvate Kinase/Lactate Dehydrogenase was added at 20 units/mL. The reaction was initiated by mixing hGYS2 buffer and substrate buffer at a 1:1 ratio. Both buffers were plated using a liquid dispensing device with hGYS2 buffer plated first followed by the substrate buffer. Plates were spun briefly to eliminate air bubbles and are immediately read in continuous mode at an absorbance of 340 nm, for 10 time points in one-minute increments, for a total of 10 minutes. The slope from these 10 time points was normalized to the positive and negative control wells. The duplicate % inhibition values are then averaged and fit to a Hill equation for dose response according to the Levenberg-Marquardt algorithm with the Hill equation maximum set to 100 and the minimum set to 0.The results are shown in Table 4 below

Compound `CC(=O)N1C[C@H](F)C[C@H]1C(=O)NC(c1ccc2cn[nH]c2c1)c1ccc(C(C)C)c(F)n1` (single isomer, unassigned) [US11814367, Compound 634] had an IC50 in experiment [1] of 43 nM. In other words, the double-digit nanomolar range.

Turning to `CC(=O)N1C[C@H](F)C[C@H]1C(=O)NC(c1ccc2cnn(C)c2c1)c1ccc(C(C)C)c(F)n1` (single isomer, unassigned) [US11814367, Compound 635], the IC50 in experiment [1] amounted to 82 nM. This IC50 lies about 1.9-fold higher than the previous one.

`CC(=O)N1C[C@H](F)C[C@H]1C(=O)NC(c1ccc2cn(C)nc2c1)c1ccc(C(C)C)c(F)n1` (single isomer, unassigned) [US11814367, Compound 636] had an IC50 in experiment [1] of 71 nM. `CC(=O)N1C[C@H](F)C[C@H]1C(=O)NC(c1ccc2cn[nH]c2c1)c1ccc(C2CC2)c(F)n1` (single isomer, unassigned) [US11814367, Compound 637] had an IC50 in experiment [1] of 453 nM. Regarding `CC(=O)N1C[C@H](F)C[C@H]1C(=O)NC(c1ccc(C(C)C)cc1)c1ccccc1N` (single isomer, unassigned) [US11814367, Compound 642], the IC50 in experiment [1] was 1330 nM; in experiment [2], above 100000 nM. In experiment [1], `COc1cccc(C(NC(=O)[C@@H]2C[C@@H](F)CN2C(C)=O)c2ccc(C(C)C)c(F)n2)c1` (single isomer, unassigned) [US11814367, Compound 654] registered an IC50 of 252 nM. As for `CC(=O)N1C[C@H](F)C[C@H]1C(=O)NC(c1ccccc1)c1ccc(C2CCC2)c(F)c1` (single isomer, unassigned) [US11814367, Compound 660], the figures for the IC50 in experiment [1] and in experiment [2] were 309 nM and above 100000 nM, respectively. `CC(=O)N1C[C@H](F)C[C@H]1C(=O)NC(c1cccc(-c2cc(C)nn2C)c1)c1ccc(C(C)C)c(F)n1` (single isomer, unassigned) [US11814367, Compound 697] displayed an IC50 in experiment [1] of 1780 nM. With `CC(=O)N1Cc2nccnc2CC1C(=O)N1C[C@H](F)C[C@H]1C(=O)N[C@@H](c1ccccc1)c1ccc(C(C)C)cc1` (some centres not stated) [US11814367, Compound 167], the concentration for half-maximal inhibition (IC50) in experiment [1] is 116 nM; in experiment [2], above 100000 nM. The corresponding values for `CC(C)c1ccc([C@@H](NC(=O)[C@@H]2C[C@@H](F)CN2C(=O)CC2COC2)c2ccccc2)cc1` [US11814367, Compound 218] are 293 nM and above 100000 nM.

`CC(C)c1ccc([C@@H](NC(=O)[C@@H]2C[C@@H](F)CN2C(=O)COC(=O)N(C)C)c2ccccc2)nc1` [US11814367, Compound 251]: the IC50 in experiment [1] is 53 nM; in experiment [2], above 100000 nM. As for `NC(=O)NCC(=O)N1C[C@H](F)C[C@H]1C(=O)N[C@@H](c1ccccc1)c1ccc(C2CC2)c(F)n1` [US11814367, Compound 302], the IC50 is 67 nM in experiment [1] and above 100000 nM in experiment [2].

As for `O=C(N[C@@H](c1ccccc1)c1ccc(C2CC2)c(F)n1)[C@@H]1C[C@@H](F)CN1C(=O)CNC(=O)N1CCC1` [US11814367, Compound 305], in experiment [1], the midpoint of inhibition, the IC50, lay at 24 nM. Turning to `CC(C)c1ccc([C@@H](NC(=O)[C@@H]2C[C@@H](F)CN2C(=O)CNC(=O)N(C)C)c2ccccc2)cc1F` [US11814367, Compound 361], the IC50 in experiment [1] was 10 nM; in experiment [2], above 100000 nM. Turning to `CC(C)c1ccc([C@@H](NC(=O)[C@@H]2C[C@@H](F)CN2C(=O)c2ccc3c(cnn3C)c2)c2ccccc2)cc1` [US11814367, Compound 702], the IC50 in experiment [1] is 1260 nM.

`O=C(N[C@H](c1ccccc1)c1ccc(C2CC2)c(F)n1)[C@@H]1C[C@@H](F)CN1C(=O)Cn1cnc2ccccc21` [US11814367, Compound 716] returned an IC50 in experiment [1] of 2160 nM. Consider `CC(C)c1ccc([C@@H](NC(=O)[C@@H]2C[C@@H](F)CN2C(=O)Cn2cc(N3CCC3)nn2)c2ccccc2)nc1F` [US11814367, Compound 787], for which the IC50 in experiment [1] was 7 nM; in experiment [2], above 100000 nM. The compound `COc1nc(CC(=O)N2C[C@H](F)C[C@H]2C(=O)N[C@@H](c2ccccc2)c2ccc(C(C)C)c(F)n2)nn1C` [US11814367, Compound 800] had an IC50 in experiment [1] of 9 nM. In experiment [1], `CC(C)c1ccc([C@@H](NC(=O)[C@@H]2C[C@@H](F)CN2C(=O)Cc2nc(C(F)(F)F)co2)c2ccccc2)nc1F` [US11814367, Compound 801] had an IC50 of 24 nM.
